{"source": "patent US3972882A", "about": "“Sym.-triazine carbamates” (Toyama Chemical Co., Ltd., priority 1973, dated 1976)", "key": {"[1]": {"system": "acetic acid-induced writhing", "experiment": "Analgesic activity by the acetic acid-induced writhing test (K. Takagi et al. method)", "assay_type": "in vivo, ddY male mice", "description": "Analgesic activity by the acetic acid-induced writhing test [According to the K. Takagi et al. method [Journal of the Pharmaceutical Society of Japan, 78 553 (1958)], a test compound suspended in the solution including 0.5 % of Tween-80 was orally administered to a group of 8 ddY male mice weighing 20 to 24 g.]"}, "[2]": {"system": "carregeenin oedema", "experiment": "Anti-carregeenin oedema activity (Winter method)", "assay_type": "in vivo, male rats", "description": "Anti-carregeenin oedema activity [According to the Winter method [Proc. Soc. exp. Biol. Med., 111 544 (1962)], a test compound suspended in the solution including 0.3 % of Tween-80 (a trade name of Atlas Powder Co., U.S.A.) was orally administered to a group of 5 male rats weighing 120 to 140 g.]\n*1 Maximum oedema inhibition.\n*2 Average oedema inhibition from 2 hrs to 5 hrs after the administration"}, "[3]": {"experiment": "toxicity test (LD50)", "details": "mouse, in vivo, mice", "description": "Therefore, the sym.-triazines of this invention are useful as an anti-inflammatory agent and analgesics."}, "[4]": {"details": "Mus musculus, po, read-out: ED50"}}, "note": "Like-named read-outs stand apart in the source and are kept apart here."}
{"compound": "COC(=O)Nc1nc(OC)nc(OC)n1", "note": "[No. 1, methyl 2,4-dimethoxy-sym.-triazinylcarbamate]", "values": [{"measurement": "Inhibition (writhing)", "setting": "[1]; 100 mg/kg p.o.", "result": 16.3, "unit": "%"}, {"measurement": "Inhibition (writhing)", "setting": "[1]; 300 mg/kg p.o.", "result": 34.7, "unit": "%"}, {"measurement": "ED50", "setting": "[1]; [4]", "result": "> 300", "unit": "mg/kg"}, {"measurement": "Inhibition of oedema, Peak (maximum oedema inhibition)", "setting": "[2]; 70 mg/kg p.o.", "result": 51.0, "unit": "%"}, {"measurement": "Inhibition of oedema, time of Peak", "setting": "[2]; 70 mg/kg p.o.", "result": 2, "unit": "h"}, {"measurement": "Inhibition of oedema, Mean (average oedema inhibition from 2 hrs to 5 hrs after the administration)", "setting": "[2]; 70 mg/kg p.o.", "result": 44.6, "unit": "%"}, {"measurement": "Inhibition of oedema, Peak (maximum oedema inhibition)", "setting": "[2]; 200 mg/kg p.o.", "result": 64.0, "unit": "%"}, {"measurement": "Inhibition of oedema, time of Peak", "setting": "[2]; 200 mg/kg p.o.", "result": 2, "unit": "h"}, {"measurement": "Inhibition of oedema, Mean (average oedema inhibition from 2 hrs to 5 hrs after the administration)", "setting": "[2]; 200 mg/kg p.o.", "result": 49.5, "unit": "%"}, {"measurement": "Inhibition of oedema, Peak (maximum oedema inhibition)", "setting": "[2]; 500 mg/kg p.o.", "result": 61.4, "unit": "%"}, {"measurement": "Inhibition of oedema, time of Peak", "setting": "[2]; 500 mg/kg p.o.", "result": 2, "unit": "h"}, {"measurement": "Inhibition of oedema, Mean (average oedema inhibition from 2 hrs to 5 hrs after the administration)", "setting": "[2]; 500 mg/kg p.o.", "result": 52.8, "unit": "%"}]}
{"compound": "COC(=S)Nc1nc(OC)nc(OC)n1", "note": "[No. 3, methyl 2,4-dimethoxy-sym.-triazinylthioncarbamate]", "values": [{"measurement": "LD50", "setting": "[3]; ip, read-out: LD50 i.p.", "result": 500, "unit": "mg/kg"}, {"measurement": "LD50", "setting": "[3]; po, read-out: LD50 p.o.", "result": 1050, "unit": "mg/kg"}, {"measurement": "Inhibition (writhing)", "setting": "[1]; 3.7 mg/kg p.o.", "result": 11.9, "unit": "%"}, {"measurement": "Inhibition (writhing)", "setting": "[1]; 11.1 mg/kg p.o.", "result": 67.9, "unit": "%"}, {"measurement": "Inhibition (writhing)", "setting": "[1]; 33.3 mg/kg p.o.", "result": 69.4, "unit": "%"}, {"measurement": "Inhibition (writhing)", "setting": "[1]; 100 mg/kg p.o.", "result": 77.2, "unit": "%"}, {"measurement": "ED50", "setting": "[1]; [4]", "result": 8, "unit": "mg/kg"}, {"measurement": "Inhibition of oedema, Peak (maximum oedema inhibition)", "setting": "[2]; 70 mg/kg p.o.", "result": 37.2, "unit": "%"}, {"measurement": "Inhibition of oedema, time of Peak", "setting": "[2]; 70 mg/kg p.o.", "result": 2, "unit": "h"}, {"measurement": "Inhibition of oedema, Mean (average oedema inhibition from 2 hrs to 5 hrs after the administration)", "setting": "[2]; 70 mg/kg p.o.", "result": 24.7, "unit": "%"}, {"measurement": "Inhibition of oedema, Peak (maximum oedema inhibition)", "setting": "[2]; 200 mg/kg p.o.", "result": 68.8, "unit": "%"}, {"measurement": "Inhibition of oedema, time of Peak", "setting": "[2]; 200 mg/kg p.o.", "result": 2, "unit": "h"}, {"measurement": "Inhibition of oedema, Mean (average oedema inhibition from 2 hrs to 5 hrs after the administration)", "setting": "[2]; 200 mg/kg p.o.", "result": 46.7, "unit": "%"}, {"measurement": "Inhibition of oedema, Peak (maximum oedema inhibition)", "setting": "[2]; 500 mg/kg p.o.", "result": 78.3, "unit": "%"}, {"measurement": "Inhibition of oedema, time of Peak", "setting": "[2]; 500 mg/kg p.o.", "result": 2, "unit": "h"}, {"measurement": "Inhibition of oedema, Mean (average oedema inhibition from 2 hrs to 5 hrs after the administration)", "setting": "[2]; 500 mg/kg p.o.", "result": 61.0, "unit": "%"}]}
{"compound": "CCOC(=S)Nc1nc(OC)nc(OC)n1", "note": "[compound 4]", "values": [{"measurement": "LD50", "setting": "[3]; ip, read-out: LD50 i.p.", "result": 490, "unit": "mg/kg"}, {"measurement": "LD50", "setting": "[3]; po, read-out: LD50 p.o.", "result": 1020, "unit": "mg/kg"}, {"measurement": "Inhibition (writhing)", "setting": "[1]; 3.7 mg/kg p.o.", "result": 7.6, "unit": "%"}, {"measurement": "Inhibition (writhing)", "setting": "[1]; 11.1 mg/kg p.o.", "result": 89.4, "unit": "%"}, {"measurement": "Inhibition (writhing)", "setting": "[1]; 33.3 mg/kg p.o.", "result": 94.4, "unit": "%"}, {"measurement": "Inhibition (writhing)", "setting": "[1]; 100 mg/kg p.o.", "result": 96.9, "unit": "%"}, {"measurement": "ED50", "setting": "[1]; [4]", "result": 6.6, "unit": "mg/kg"}, {"measurement": "Inhibition of oedema, Peak (maximum oedema inhibition)", "setting": "[2]; 70 mg/kg p.o.", "result": 23.9, "unit": "%"}, {"measurement": "Inhibition of oedema, time of Peak", "setting": "[2]; 70 mg/kg p.o.", "result": 2, "unit": "h"}, {"measurement": "Inhibition of oedema, Mean (average oedema inhibition from 2 hrs to 5 hrs after the administration)", "setting": "[2]; 70 mg/kg p.o.", "result": 21.8, "unit": "%"}, {"measurement": "Inhibition of oedema, Peak (maximum oedema inhibition)", "setting": "[2]; 200 mg/kg p.o.", "result": 45.9, "unit": "%"}, {"measurement": "Inhibition of oedema, time of Peak", "setting": "[2]; 200 mg/kg p.o.", "result": 2, "unit": "h"}, {"measurement": "Inhibition of oedema, Mean (average oedema inhibition from 2 hrs to 5 hrs after the administration)", "setting": "[2]; 200 mg/kg p.o.", "result": 35.4, "unit": "%"}, {"measurement": "Inhibition of oedema, Peak (maximum oedema inhibition)", "setting": "[2]; 500 mg/kg p.o.", "result": 64.5, "unit": "%"}, {"measurement": "Inhibition of oedema, time of Peak", "setting": "[2]; 500 mg/kg p.o.", "result": 2, "unit": "h"}, {"measurement": "Inhibition of oedema, Mean (average oedema inhibition from 2 hrs to 5 hrs after the administration)", "setting": "[2]; 500 mg/kg p.o.", "result": 50.6, "unit": "%"}]}
{"compound": "CCOC(=S)Nc1nc(O)nc(O)n1", "note": "[compound 10]", "values": [{"measurement": "Inhibition of oedema, Peak (maximum oedema inhibition)", "setting": "[2]; 500 mg/kg p.o.", "result": 13.0, "unit": "%"}, {"measurement": "Inhibition of oedema, time of Peak", "setting": "[2]; 500 mg/kg p.o.", "result": 2, "unit": "h"}]}
{"compound": "ethyl 2,4-dihydroxy-sym.-triazinylthioncarbamate [No. 10]", "values": [{"measurement": "Inhibition of oedema, Peak (maximum oedema inhibition)", "setting": "[2]; 500 mg/kg p.o.", "result": 17.5, "unit": "%"}, {"measurement": "Inhibition of oedema, time of Peak", "setting": "[2]; 500 mg/kg p.o.", "result": 2, "unit": "h"}]}
{"compound": "ethyl 2,4-dimethoxy-sym.-triazinyldithiocarbamate [No. 7]", "values": [{"measurement": "Inhibition (writhing)", "setting": "[1]; 33.3 mg/kg p.o.", "result": 16.5, "unit": "%"}, {"measurement": "Inhibition (writhing)", "setting": "[1]; 100 mg/kg p.o.", "result": 68.4, "unit": "%"}, {"measurement": "ED50", "setting": "[1]; p.o.", "result": 67.5, "unit": "mg/kg"}, {"measurement": "Inhibition of oedema, Peak (maximum oedema inhibition)", "setting": "[2]; 500 mg/kg p.o.", "result": 38.0, "unit": "%"}, {"measurement": "Inhibition of oedema, time of Peak", "setting": "[2]; 500 mg/kg p.o.", "result": 2, "unit": "h"}, {"measurement": "Inhibition of oedema, Mean (average oedema inhibition from 2 hrs to 5 hrs after the administration)", "setting": "[2]; 500 mg/kg p.o.", "result": 18.1, "unit": "%"}]}
{"compound": "ethyl 2,4-dimethoxy-sym.-triazinylthiolcarbamate [No. 11]", "values": [{"measurement": "Inhibition (writhing)", "setting": "[1]; 100 mg/kg p.o.", "result": 2.9, "unit": "%"}, {"measurement": "Inhibition (writhing)", "setting": "[1]; 300 mg/kg p.o.", "result": 50.3, "unit": "%"}, {"measurement": "ED50", "setting": "[1]; p.o.", "result": 300, "unit": "mg/kg"}]}
{"compound": "methyl 2,4-diethoxy-sym.-triazinylthioncarbamate [No. 8]", "values": [{"measurement": "Inhibition of oedema, Peak (maximum oedema inhibition)", "setting": "[2]; 500 mg/kg p.o.", "result": 16.3, "unit": "%"}, {"measurement": "Inhibition of oedema, time of Peak", "setting": "[2]; 500 mg/kg p.o.", "result": 3, "unit": "h"}]}
{"compound": "methyl 2,4-diphenoxy-sym.-triazinylthioncarbamate [No. 9]", "values": [{"measurement": "Inhibition of oedema, Peak (maximum oedema inhibition)", "setting": "[2]; 200 mg/kg p.o.", "result": 27.1, "unit": "%"}, {"measurement": "Inhibition of oedema, time of Peak", "setting": "[2]; 200 mg/kg p.o.", "result": 5, "unit": "h"}, {"measurement": "Inhibition of oedema, Mean (average oedema inhibition from 2 hrs to 5 hrs after the administration)", "setting": "[2]; 200 mg/kg p.o.", "result": 17.6, "unit": "%"}, {"measurement": "Inhibition of oedema, time of Peak", "setting": "[2]; 500 mg/kg p.o.", "result": 2, "unit": "h"}, {"measurement": "Inhibition of oedema, Mean (average oedema inhibition from 2 hrs to 5 hrs after the administration)", "setting": "[2]; 500 mg/kg p.o., listed as 7", "result": 27.6, "unit": "%"}, {"measurement": "Inhibition of oedema, Mean (average oedema inhibition from 2 hrs to 5 hrs after the administration)", "setting": "[2]; 500 mg/kg p.o., listed as 8", "result": 23.5, "unit": "%"}, {"measurement": "Inhibition of oedema, Peak (maximum oedema inhibition)", "setting": "[2]; 500 mg/kg p.o., listed as 7", "result": 37.4, "unit": "%"}, {"measurement": "Inhibition of oedema, Peak (maximum oedema inhibition)", "setting": "[2]; 500 mg/kg p.o., listed as 8", "result": 32.2, "unit": "%"}]}
